# Experimental data: US20200397796A1, “METHODS OF TREATMENT OF CANCER COMPRISING CHK1 INHIBITORS” (SIERRA ONCOLOGY, INC., priority 2018, published 2020)
# Tests used:
# CYP 2C9 = CYP 2C9 (Homo sapiens, UniProt P11712); test: CYP inhibition, 2C9; type: in vitro ADME; conditions: highest concentration investigated
# [1] = Phase 1 clinical trial, SRA737 in combination with gemcitabine dose escalation; type: in vivo; conditions: human, plasma, oral, 20 mg, Day −7, mean, n = 8-10
# MC38 = test: In vivo efficacy, MC38 syngeneic mouse model; conditions: in combination with a PD1/PD-L1 inhibitor; data not shown
# Method: (§1) A program of in vivo efficacy studies was performed to assess the activity of SRA737 in combination with genotoxic chemotherapy and targeted agents, and as monotherapy.
# (§2) One of these models also carried a MYCN amplification. A fourth HGSOC PDX model with partial resistance to PARPi was also sensitive to high dose SRA737 monotherapy.
# [2] = test system: SJSA-1 human osteosarcoma; test: In vivo efficacy, SJSA-1 xenograft model; design: species or system mouse; conditions: data not shown
# Method: as §1, §2
# Pan02 = test: In vivo efficacy, Pan02 syngeneic mouse model; conditions: in combination with a PD1/PD-L1 inhibitor; data not shown
# Method: as §1, §2
# [3] = Phase 1 clinical trial, SRA737 monotherapy dose escalation; type: in vivo, human; conditions: for AUC(0-t): AUC0-24
# Method: A Phase 1 clinical trial was conducted in ‘all comers,’ i.e. no genetic selection was performed, to establish safety, tolerability and pharmacokinetics (“Dose Escalation Phase”). Cohorts consisting initially of a single subject received escalating doses of SRA737, starting in Cohort 1 with 20 mg/day administered orally on a continuous daily dosing schedule in 28 day cycles. the dose was escalated until the maximum tolerated dose (MTD) was identified.
# In the Dose Escalation Phase, 18 subjects received SRA737 in 9 dose level cohorts, from 20 to 1300 mg QD; median treatment duration 62.5 days (range 1 to 226). […] Two of 3 subjects experienced DLTs at the 1300 mg once daily dose, each being an inability to receive 75% of the planned SRA737 dose due to GI intolerability, with the individual GI effects being low grade. […] A cohort receiving 500 mg twice daily was added to determine if a twice daily dosing schedule can improve GI tolerability, given the half-life of SRA737 is approximately 10 hours. One of 6 subjects experienced DLTs in the 500 mg twice daily cohort; this was an inability to receive 75% of the planned SRA737 dose due to grade 4 thrombocytopenia with grade 3 neutropenia and anemia.
# Cmin was calculated at 1000 mg QD (411 ng/mL) and exceeded that determined in preclinical models to be effective. Doses≥300 mg QD also exceeded the preclinical models to be effective.
# MDA-MB-231 model of TNBC = test: In vivo efficacy, MDA-MB-231 model; design: species or system mouse; conditions: data not shown
# Method: as §1, §2
# Chk1 = biological target: T1, Chk1 (Homo sapiens, UniProt O14757); conditions: limited off-target activity against other kinases; Walton et al.; cited from earlier work
# T1 construct: endogenous in cells
# T1 sequence (O14757 1-476): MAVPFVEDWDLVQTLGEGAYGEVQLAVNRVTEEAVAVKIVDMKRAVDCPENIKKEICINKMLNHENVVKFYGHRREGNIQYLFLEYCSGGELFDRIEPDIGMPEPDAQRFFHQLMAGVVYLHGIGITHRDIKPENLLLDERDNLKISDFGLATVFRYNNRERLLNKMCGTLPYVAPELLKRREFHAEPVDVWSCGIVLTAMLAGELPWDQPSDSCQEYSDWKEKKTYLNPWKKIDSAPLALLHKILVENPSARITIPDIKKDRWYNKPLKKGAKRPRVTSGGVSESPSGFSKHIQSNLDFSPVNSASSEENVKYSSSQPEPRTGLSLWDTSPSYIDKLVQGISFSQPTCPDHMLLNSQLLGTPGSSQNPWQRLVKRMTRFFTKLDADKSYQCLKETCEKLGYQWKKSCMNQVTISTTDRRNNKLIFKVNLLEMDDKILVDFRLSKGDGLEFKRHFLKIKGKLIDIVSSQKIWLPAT
# CYP 2D6 = CYP 2D6 (Homo sapiens, UniProt P10635); test: CYP inhibition, 2D6; type: in vitro ADME; conditions: highest concentration investigated
# LL/2 (lung cancer) = test: In vivo efficacy, LL/2 syngeneic model; design: species or system mouse; conditions: data not shown
# Method: as §1, §2
# mTmG = test: In vivo efficacy, mTmG syngeneic mouse model; conditions: in combination with a PD1/PD-L1 inhibitor; data not shown
# Method: as §1, §2
# Chain of CYP 2C9 (P11712 whole entry): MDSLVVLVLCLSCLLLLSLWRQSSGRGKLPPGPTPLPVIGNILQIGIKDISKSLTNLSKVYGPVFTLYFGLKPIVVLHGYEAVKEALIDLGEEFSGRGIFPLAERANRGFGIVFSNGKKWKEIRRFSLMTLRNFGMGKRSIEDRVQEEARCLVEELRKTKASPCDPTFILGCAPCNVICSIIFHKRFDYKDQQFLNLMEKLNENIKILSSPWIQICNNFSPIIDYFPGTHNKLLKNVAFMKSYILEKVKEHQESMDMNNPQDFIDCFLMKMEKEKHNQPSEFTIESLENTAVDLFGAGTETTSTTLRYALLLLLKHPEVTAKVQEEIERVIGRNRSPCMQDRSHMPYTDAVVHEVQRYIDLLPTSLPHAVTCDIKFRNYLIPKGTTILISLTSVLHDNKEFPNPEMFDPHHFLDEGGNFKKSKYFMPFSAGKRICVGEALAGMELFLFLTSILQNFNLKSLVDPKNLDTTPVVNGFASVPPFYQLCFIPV
# Chain of CYP 2D6 (P10635 whole entry): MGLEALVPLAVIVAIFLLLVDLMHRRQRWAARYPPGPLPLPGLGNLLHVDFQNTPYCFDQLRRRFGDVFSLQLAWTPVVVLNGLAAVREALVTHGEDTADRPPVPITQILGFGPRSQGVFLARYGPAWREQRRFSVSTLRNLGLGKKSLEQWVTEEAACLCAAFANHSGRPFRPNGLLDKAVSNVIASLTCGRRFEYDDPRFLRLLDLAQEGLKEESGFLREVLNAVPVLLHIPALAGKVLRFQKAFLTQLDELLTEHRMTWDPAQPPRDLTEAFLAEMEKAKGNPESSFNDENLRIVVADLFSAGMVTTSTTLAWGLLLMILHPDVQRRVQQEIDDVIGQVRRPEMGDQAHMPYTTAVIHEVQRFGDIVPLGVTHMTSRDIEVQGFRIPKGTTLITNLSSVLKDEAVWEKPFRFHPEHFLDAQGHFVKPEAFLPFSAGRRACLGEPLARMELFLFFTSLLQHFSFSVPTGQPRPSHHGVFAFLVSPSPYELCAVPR
smiles,measurement,setting,value
"N#Cc1cnc(Nc2cc(NCC3CNCCO3)c(C(F)(F)F)cn2)cn1 (stereo not shown) [SRA737, 5-[[4-[[morpholin-2-yl]methylamino]-5-(trifluoromethyl)-2-pyridyl]amino]pyrazine-2-carbonitrile]",IC50,CYP 2C9,10 to 50 µM
same,Cmax,[1],31.3 ng/mL
same,Tmax,[1],1.9 h
same,antitumor activity,MC38,Significant antitumor activity
same,antitumor activity,[2]; in combination with standard-dose gemcitabine,"Significant, dose-dependent antitumor activity"
same,synergy,[2]; with low-dose gemcitabine,Synergy
same,antitumor activity,Pan02,Significant antitumor activity
same,maximum tolerated dose (MTD),[3]; BID,500 mg
same,maximum tolerated dose (MTD),"[3]; QD, continuous daily oral dosing",1000 mg
same,dose-limiting toxicities (DLTs),"[3]; human, in vivo",without any dose-limiting toxicities
same,doses that exceeded the level determined in preclinical models to be effective,"[3]; human, in vivo",≥ 300 mg
same,Cmax,"[3]; human, in vivo, 20 mg",29.0 ng/mL
same,Cmax,"[3]; human, in vivo, 20 mg, Cmax",43 ng/mL
same,half-life,"[3]; human, in vivo, 20 mg, T1/2",17.6 h
same,AUC0-24,"[3]; human, in vivo, 40 mg","1,006 ng · h/mL"
same,Cmax,"[3]; human, in vivo, 40 mg",75.9 ng/mL
same,T1/2,"[3]; human, in vivo, 40 mg",16.8 h
same,Tmax,"[3]; human, in vivo, 40 mg",2.0 h
same,AUC(0-t),"[3]; human, in vivo, 40 mg",809 ng·h/mL
same,Cmax,"[3]; human, in vivo, 40 mg, Cmax",95 ng/mL
same,half-life,"[3]; human, in vivo, 40 mg, T1/2",9.85 h
same,Tmax,"[3]; human, in vivo, 40 mg, Tmax",1 h
same,AUC0-24,"[3]; human, in vivo, 80 mg","1,064 ng · h/mL"
same,Cmax,"[3]; human, in vivo, 80 mg",81.4 ng/mL
same,T1/2,"[3]; human, in vivo, 80 mg",15.6 h
same,Tmax,"[3]; human, in vivo, 80 mg",2.0 h
same,AUC(0-t),"[3]; human, in vivo, 80 mg",691 ng·h/mL
same,Cmax,"[3]; human, in vivo, 80 mg, Cmax",68.9 ng/mL
same,half-life,"[3]; human, in vivo, 80 mg, T1/2",9.27 h
same,Tmax,"[3]; human, in vivo, 80 mg, Tmax",4 h
same,AUC0-24,"[3]; human, in vivo, 160 mg","2,515 ng · h/mL"
same,Cmax,"[3]; human, in vivo, 160 mg",217 ng/mL
same,T1/2,"[3]; human, in vivo, 160 mg",19.8 h
same,Tmax,"[3]; human, in vivo, 160 mg",2.0 h
same,AUC(0-t),"[3]; human, in vivo, 160 mg",1620 ng·h/mL
same,Cmax,"[3]; human, in vivo, 160 mg, Cmax",178 ng/mL
same,half-life,"[3]; human, in vivo, 160 mg, T1/2",13.8 h
same,Tmax,"[3]; human, in vivo, 160 mg, Tmax",4 h
same,AUC0-24,"[3]; human, in vivo, 300 mg","2,362 ng · h/mL"
same,T1/2,"[3]; human, in vivo, 300 mg",15.4 h
same,Tmax,"[3]; human, in vivo, 300 mg",6.0 h
same,AUC(0-t),"[3]; human, in vivo, 300 mg",3150 ng·h/mL
same,half-life,"[3]; human, in vivo, 300 mg, T1/2",8.59 h
same,Tmax,"[3]; human, in vivo, 300 mg, Tmax",4 h
same,AUC0-24,"[3]; human, in vivo, 600 mg","12,850 ng · h/mL"
same,Cmax,"[3]; human, in vivo, 600 mg","1,381 ng/mL"
same,T1/2,"[3]; human, in vivo, 600 mg",10.4 h
same,Tmax,"[3]; human, in vivo, 600 mg",2.9 h
same,AUC(0-t),"[3]; human, in vivo, 600 mg",8870 ng·h/mL
same,Cmax,"[3]; human, in vivo, 600 mg, Cmax",998 ng/mL
same,half-life,"[3]; human, in vivo, 600 mg, T1/2",12.9 h
same,Tmax,"[3]; human, in vivo, 600 mg, Tmax",1.8 h
same,AUC0-24,"[3]; human, in vivo, 800 mg","25,423 ng · h/mL"
same,Cmax,"[3]; human, in vivo, 800 mg","2,573 ng/mL"
same,T1/2,"[3]; human, in vivo, 800 mg",10.0 h
same,Tmax,"[3]; human, in vivo, 800 mg",2.5 h
same,AUC(0-t),"[3]; human, in vivo, 800 mg",18900 ng·h/mL
same,Cmax,"[3]; human, in vivo, 800 mg, Cmax",1980 ng/mL
same,half-life,"[3]; human, in vivo, 800 mg, T1/2",10.3 h
same,Tmax,"[3]; human, in vivo, 800 mg, Tmax",3.3 h
same,T1/2,"[3]; human, in vivo, 1000 mg",9.38 h
same,Tmax,"[3]; human, in vivo, 1000 mg",3.1 h
same,AUC(0-t),"[3]; human, in vivo, 1000 mg",26800 ng·h/mL
same,Cmax,"[3]; human, in vivo, 1000 mg, Cmax",2390 ng/mL
same,half-life,"[3]; human, in vivo, 1000 mg, T1/2",11 h
same,Tmax,"[3]; human, in vivo, 1000 mg, Tmax",3.3 h
same,AUC(0-t),"[3]; human, in vivo, 1300 mg",29800 ng·h/mL
same,Cmax,"[3]; human, in vivo, 1300 mg, Cmax",3230 ng/mL
same,half-life,"[3]; human, in vivo, 1300 mg, T1/2",11.8 h
same,Tmax,"[3]; human, in vivo, 1300 mg, Tmax",2.7 h
same,half-life,"[3]; human, in vivo, half-life",~10 h
same,single agent efficacy,MDA-MB-231 model of TNBC,single agent efficacy
same,inhibitor of Chk1,Chk1,potent and selective inhibitor of Chk1
same,IC50,CYP 2D6,10 to 50 µM
same,single agent efficacy,LL/2 (lung cancer),single agent efficacy
same,antitumor activity,mTmG,Significant antitumor activity
